{"source": "paper PMC6658998", "about": "“Pharmacological characterization of the seven human NOX isoforms and their inhibitors” (Redox Biology, 2019)", "key": {"NOX2 [1]": {"biological_target": "T1, NOX2 (Homo sapiens, UniProt P04839)", "T1 sequence (P04839 2-570 limits assumed)": "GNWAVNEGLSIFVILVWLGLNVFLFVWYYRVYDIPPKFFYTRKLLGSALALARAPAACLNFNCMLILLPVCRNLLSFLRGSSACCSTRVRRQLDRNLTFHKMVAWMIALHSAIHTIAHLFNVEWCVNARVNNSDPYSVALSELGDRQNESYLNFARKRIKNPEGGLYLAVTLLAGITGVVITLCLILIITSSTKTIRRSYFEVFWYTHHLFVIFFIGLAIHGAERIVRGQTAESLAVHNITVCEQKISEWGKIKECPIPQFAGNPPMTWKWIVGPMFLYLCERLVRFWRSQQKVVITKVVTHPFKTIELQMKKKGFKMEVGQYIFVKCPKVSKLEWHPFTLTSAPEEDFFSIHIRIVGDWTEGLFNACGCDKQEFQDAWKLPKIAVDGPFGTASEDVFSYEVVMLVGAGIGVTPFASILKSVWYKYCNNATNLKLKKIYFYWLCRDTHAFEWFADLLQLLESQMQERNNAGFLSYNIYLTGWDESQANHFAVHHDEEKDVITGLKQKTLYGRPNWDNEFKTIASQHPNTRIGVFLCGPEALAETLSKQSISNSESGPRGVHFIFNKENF", "assay": "NOX2 activity in purified PLB-985 membranes (WST-1, CBA)", "assay_type": "biochemical", "description": "PLB-985 (40 dishes 150 cm^2) were grown in suspension and differentiated by addition of 1.25% DMSO for 72 h. HEK293 cells expressing NOX5 (40 dishes 150 cm^2) were amplified until confluence and detached using trypsin-EDTA for 5 min followed by addition of 2 vol of pre-warmed complete growth media to inactivate trypsin. Collected cells were centrifuged at 4000 ×g for 10 min. Cells were washed with PBS and centrifuged at 1500 ×g for 10 min. The supernatant was discarded and the pellet was placed at −80 °C for at least 30 min. […] Samples were sonicated two times for 25 s (level 7, Branson Sonifier 250). Cell debris were removed by centrifugation at 800 ×g for 10 min at 4 °C. […] Protein concentration was determined with Bradford reagent using BSA as a standard. […]\nNOX2 containing membranes were used at 10 μg/mL of proteins in a reaction mixture containing 90 nM recombinant RacQ61L, 45 nM recombinant p67Np47 N chimeric protein (consisting of a fusion of the N-termini of human p67phox [residues 1–210] and p47phox [residues 1–286]), 90 μM SDS, 1 μM FAD-Na2 and 1 mM WST-1 or 800 μM CBA in PBS. The reaction mixture was dispensed in 96-well plates (transparent for WST-1 absorbance, black for CBA fluorescence) at 80 μL/well and the plate was incubated for 5 min at 37 °C. […]"}, "NOX4 [2]": {"biological_target": "NOX4 (Homo sapiens, UniProt Q9NPH5)", "sequence (Q9NPH5 whole entry)": "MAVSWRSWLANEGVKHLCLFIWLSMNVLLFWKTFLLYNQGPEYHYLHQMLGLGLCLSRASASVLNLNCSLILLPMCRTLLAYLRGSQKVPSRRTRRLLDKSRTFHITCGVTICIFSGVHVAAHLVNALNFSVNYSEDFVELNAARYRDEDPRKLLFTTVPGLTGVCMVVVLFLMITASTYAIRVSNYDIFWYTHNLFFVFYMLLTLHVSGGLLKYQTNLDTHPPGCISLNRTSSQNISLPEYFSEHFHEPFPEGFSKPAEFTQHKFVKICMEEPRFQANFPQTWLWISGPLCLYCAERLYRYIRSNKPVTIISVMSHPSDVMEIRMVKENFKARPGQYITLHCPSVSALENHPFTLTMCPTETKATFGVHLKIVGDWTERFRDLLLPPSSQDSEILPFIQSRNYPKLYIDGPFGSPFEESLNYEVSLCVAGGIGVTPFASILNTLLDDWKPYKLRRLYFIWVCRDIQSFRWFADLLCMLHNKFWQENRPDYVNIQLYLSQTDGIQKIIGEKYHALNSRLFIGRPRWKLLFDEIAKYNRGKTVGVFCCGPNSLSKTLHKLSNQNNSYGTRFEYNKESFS", "sequence (P13498 whole entry partner)": "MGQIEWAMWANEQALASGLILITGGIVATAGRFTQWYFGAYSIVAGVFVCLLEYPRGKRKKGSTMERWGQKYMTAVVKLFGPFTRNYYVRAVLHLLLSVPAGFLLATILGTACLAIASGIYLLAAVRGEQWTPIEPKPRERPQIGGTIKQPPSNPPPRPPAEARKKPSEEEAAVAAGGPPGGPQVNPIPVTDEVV", "conditions": "NOX4 T-rex cells, tetracycline 24 h, antimycin A 1 μM, compound 10 μM", "procedure": "For NOX4-dependent oxygen consumption, NOX4 T-Rex HEK cells (50,000 cells/well) were plated onto poly-L-lysine coated XF24 cell culture microplates (Seahorse), treated with 1 μg/mL tetracycline and incubated at 37 °C with 5% CO2 for 24 h. One hour prior to assay, the medium was changed to DMEM without carbonate buffer supplemented with 10 mM HEPES, pH 7.4 and the cells were then incubated for 1 h at 37 °C in normal atmosphere. The baseline oxygen consumption rate (OCR) was recorded 3 times before rotenone (1 μM) and antimycin A (1 μM) were added to eliminate mitochondrial oxygen consumption and 1 OCR cycle was measured. Test compounds were added in the second injection and 4 OCR cycles were recorded. Each OCR cycle was as follows: 3 min mixing; 2 min waiting; 3 min measuring. The basal OCR in tetracycline-induced cells (prior to addition of blockers of mitochondrial respiration) was considered as 100%. Data were analysed using Wave XFe 2.1.0 software. At least three independent experiments were performed for each compound."}, "all NOX isoforms": {"system": "all NOX isoforms", "conditions": "compound 10 μM, NOX1-5, DUOX1, DUOX2 cell lines"}, "NOX1": {"biological_target": "NOX1", "set-up": "method as in PMID 27273790", "conditions": "documented values, measured using Amplex Red/HRP assay; cited from earlier work"}, "NOX4 [3]": {"biological_target": "NOX4", "set-up": "method as in PMID 27273790", "conditions": "documented values, measured using Amplex Red/HRP assay; cited from earlier work"}, "NOX5": {"biological_target": "NOX5", "set-up": "method as in PMID 27273790", "conditions": "documented values, measured using Amplex Red/HRP assay; cited from earlier work"}, "NOX2 [4]": {"biological_target": "NOX2", "set-up": "method as in PMID 27273790", "conditions": "documented values, measured using Amplex Red/HRP assay; cited from earlier work"}}}
{"smiles": "O=c1c2ccccc2[se]n1-c1ccccc1", "note": "[Ebselen, ebselen]", "values": [{"measurement": "Inhibition of NOX2-dependent signal in membranes", "setting": "NOX2 [1]; compound 50 μM", "value": "inhibited"}]}
{"smiles": "c1ccc2c(c1)[I+]c1ccccc1-2", "note": "[DPI, diphenylene iodonium chloride]", "values": [{"measurement": "Inhibitory activity in NOX2 membrane assay", "setting": "NOX2 [1]; WST-1 / CBA, concentration not given", "value": "potently inhibited"}, {"measurement": "Inhibition of NOX4-dependent (non-mitochondrial) oxygen consumption", "setting": "NOX4 [2]", "value": "inhibited"}, {"measurement": "Inhibition of NOX isoforms in cell lines", "setting": "all NOX isoforms", "value": "inhibits all NOX isoforms"}]}
{"smiles": "Cc1c2c(=O)n(-c3ccccc3Cl)[nH]c2cc(=O)n1Cc1ccccn1", "note": "[GKT136901]", "values": [{"measurement": "Ki NOX1", "setting": "NOX1", "value": "nanomolar range"}, {"measurement": "Ki NOX4", "setting": "NOX4 [3]", "value": "nanomolar range"}, {"measurement": "Ki NOX5", "setting": "NOX5", "value": "nanomolar range"}, {"measurement": "Ki NOX2", "setting": "NOX2 [4]", "value": "micromolar range"}]}
